Assay results as given in patent US20180352814A1 (priority 2015, published 2018).

Tests used:
Type in all cases: in vivo
[1] = test system: tomato late blight fungus (Phytophthora infestans); details: 500 ppm foliage spray; tomato variety PATIO; inoculated 1 day after spraying
[2] = test system: soybean frogeye leaf spot (Cercospora sojina) fungus; experiment: Test Example 15: Control Test on Soybean Frogeye Leaf Spot (Cercospora sojina); details: 200 ppm foliage spray 5 days after inoculation; soybean cultivar TACHINAGAHA
From the text: (§1) The non-treatment in Test Examples 5 to 20 means that foliage application of a mixture of a preparation containing the present compound and water was not performed.
Control Test on Soybean Frogeye Leaf Spot (Cercospora sojina)
Each of plastic pots was filled with soil and soybean (cultivar: TACHINAGAHA) was sowed and grown in a greenhouse for 13 days. Thereafter, an aqueous suspension containing spores of soybean frogeye leaf spot (Cercospora sojina) fungus was sprayed to inoculate the spores. After inoculation, the soybean was at first left to stand in a greenhouse at 23° C. in the daytime under high humidity condition for 4 days, and cultivated in a greenhouse at 23° C. for 1 day. Then, the present compound 11 formulated in accordance with the method mentioned in Formulation Example 6 was mixed with water so as to adjust the concentration to 200 ppm, and the mixture was sprayed over stems and leaves of the soybean so that it sufficiently adhered to the surface of the leaves of the soybean. After spraying, the soybean was air-dried and cultivated in a greenhouse at 24° C. during the day and 20° C. at night for 21 days, and then the area of lesion spots was investigated.

[3] = test system: cucumber powdery mildew fungus (Sphaerotheca fuliginea); experiment: Test Example 20: Control Test on Cucumber Powdery Mildew (Sphaerotheca fuliginea); details: 200 ppm foliage spray; cucumber cultivar SAGAMI HANJIRO; inoculated 1 day after spraying
From the text: as §1
Control Test on Cucumber Powdery Mildew (Sphaerotheca fuliginea)
Each of plastic pots was filled with soil and cucumber (cultivar; SAGAMI HANJIRO) was sowed and grown in a greenhouse for 12 days. Then, the present compound 41 formulated in accordance with the method mentioned in Formulation Example 6 was mixed with water so as to adjust the concentration to 200 ppm, and the mixture was sprayed over stems and leaves of the cucumber so that it sufficiently adhered to the surface of the leaves of the cucumber. After spraying, the […] was air-dried. After the cucumber was left to stand in a greenhouse at 24° C. during the day and 20° C. at night for 1 day, the spores of the cucumber seedling (cultivar; SAGAMI HANJIRO) infected by cucumber powdery mildew fungus were sprinkling-inoculated. After inoculation, the cucumber was cultivated in a greenhouse at 24° C. during the day and 20° C. at night for 8 days, and then the area of lesion spots was investigated.

[4] = test system: soybean rust fungus (Phakopsora pachyrhizi); experiment: Test Example 9: Control Test on Soybean Rust (Phakopsora pachyrhizi), spraying after inoculation; details: 200 ppm foliage spray 3 days after inoculation; soybean cultivar KUROSENGOKU
From the text: as §1
(§2) Control Test on Soybean Rust (Phakopsora pachyrhizi)
Each of plastic pots was filled with soil and soybean (cultivar: KUROSENGOKU) was sowed and grown in a greenhouse for 10 days. Thereafter, an aqueous suspension containing spores of soybean rust fungus was sprayed to inoculate the spores. After inoculation, the soybean was at first left to stand in a greenhouse at 23° C. in the daytime and 20° C. at night under high humidity condition for 1 day and cultivated in a greenhouse at room temperature for 2 days. Then, the present compound 1 to 9, 11 to 23, 26 to 33, 35 to 41, or 44 formulated in accordance with the method mentioned in Formulation Example 6 was mixed with water so as to adjust the concentration to 200 ppm, and the mixture was sprayed over stems and leaves of the soybean so that it sufficiently adhered to the surface of the leaves of the soybean. After spraying, the soybean was air-dried and cultivated in a greenhouse for 8 days, and then the area of lesion spots was investigated.

[5] = test system: soybean rust fungus (Phakopsora pachyrhizi); experiment: Test Example 10: Control Test on Soybean Rust (Phakopsora pachyrhizi), spraying before inoculation; details: 200 ppm foliage spray; soybean cultivar KUROSENGOKU; inoculated 4 days after spraying
From the text: as §1, §2
Each of plastic pots was filled with soil and soybean (cultivar: KUROSENGOKU) was sowed and grown in a greenhouse for 13 days. Then, the present compound 1 to 9, 11 to 21, 29 to 37, or 44 formulated in accordance with the method mentioned in Formulation Example 6 was mixed with water so as to adjust the concentration to 200 ppm, and the mixture was sprayed over stems and leaves so that it sufficiently adhered to the surface of the leaves of the soybean. After spraying, the soybean was air-dried. After 4 days, an aqueous suspension containing spores of soybean rust fungus was sprayed to inoculate the spores. After inoculation, the soybean was at first left to stand in a greenhouse at 23° C. in the daytime and 20° C. at night under high humidity condition for 1 day, and then cultivated in a greenhouse for 10 days, and the area of lesion spots was investigated. As a result, the area of lesion spots on the soybean treated with the present compound 1 to 9, 11 to 21, 29 to 37, or 44 was 30% or less of that on a non-treated soybean.

## CCOCCNC(=O)Oc1ccc(-c2noc(C(F)(F)F)n2)cc1 [compound 9]
[1]
  area of lesion spots on the treated tomato relative to that on a non-treated tomato: ≤ 30%

## COCCN(C)C(=O)Oc1ccc(-c2noc(C(F)(F)F)n2)cc1F [compound 11]
[2]
  area of lesion spots on the treated soybean relative to that on a non-treated soybean: ≤ 30%

## CC1(C(=O)Nc2ccc(-c3noc(C(F)(F)F)n3)cc2)CC1 [compound 41]
[3]
  area of lesion spots on the treated cucumber relative to that on a non-treated cucumber: ≤ 30%

## O=C(Oc1ccc(-c2noc(C(F)(F)F)n2)cc1)C1CCCCC1 [compound 44]
[4]
  area of lesion spots on the treated soybean relative to that on a non-treated soybean: ≤ 30%
[5]
  area of lesion spots on the treated soybean relative to that on a non-treated soybean: ≤ 30%
